Source: US20130116251A1, “Novel HSP90 Inhibitor” (Nippon Kayaku Kabushiki Kaisha, priority 2005, published 2013)
pIC50: −log10 of the molar value. Counter-ions that a name gives are not always drawn. Like-named read-outs stand apart in the source and are kept apart here.

What was measured:
rHSP90 = experiment: HSP90 binding assay (BIACORE SPR; inhibition of binding between rHSP90 and fixed herbimycin A); settings: concentration inhibiting binding between rHSP90 (50 μg/mL) and fixed herbimycin A by 50%, BIACORE-X SPR; read-out: HSP90 inhibitory activity IC50
Text: The HSP90 binding assay system is a system for detecting the change of mass as SPR signal caused by the binding between herbimycin A fixed on a sensor chip and rHSP90 by BIACORE-X, in which 17-(6-amino hexylamino)herbimycin A is fixed through a carboxyl group on the surface of the sensor chip (CM5, BIACORE) on which carboxymethyldextran has been introduced. The method was according to the protocol of BIACORE. In addition, 17-(6-aminohexylamino)herbimycin A was synthesizes as described below.
rHSP90 (Stressgen Biotechnologies Corp., Victoria, BC Canada) at 50 μg/mL was exposed for 10 seconds to the surface of the sensor chip on which herbimycin A was fixed and the SPR signal (numerical value of interaction) was detected.
After mixing rHSP90 protein (5×10^−7M (50 μg/mL)) with the triazole derivative of the present invention, the mixture was exposed for 10 seconds to the surface of the sensor chip on which herbimycin A was fixed, and the SPR signal was measured by BIACORE-X.
Next, using following formula (1), the inhibitory activity (binding inhibition rate (%)) of the compound of the present invention to the binding between rHSP90 and fixed herbimycin A was obtained.
binding inhibition rate(%)=((b−s)/b)×100 Formula (1)
wherein b is the SPR signal when the compound of the present invention is not added to the sample: s is the SPR signal when the compound of the present invention is added to the sample.

[1] = tested on: Human breast cancer cells (MCF7); experiment: Antiproliferative activity on MCF7 cells (methylene blue method); type: cell-based; settings: read-out: Antiproliferative activity IC50
Description: Human breast cancer cells (MCF7) were treated with samples of various concentrations of known HSP90 inhibitors (that is, geldanamycin, herbimycin, radicicol and PU3) and the compounds of the present invention for 72 hours to confirm the effect of the triazole derivatives of the present invention on the cell growth. The cell ratio after the drug treatment was evaluated by measuring 660 nm absorbance by a microplate reader (BioRad) after staining the cells with the methylene blue method.
Cells were distributed to wells of 96 well plates at 2000 cells per well and treated with drugs 24 hours later. Further, the medium was removed 72 hours later and the cells were fixed by adding 50 μl of methanol and standing at room temperature for 2 minutes. After removing methanol, 100 μl of a staining solution was added and stained for 30 minutes. After washing 3 times with 200 μl of distilled water, 3% HCl solution was added, and the 660 nm absorbance of methylene blue was measured by a microplate reader (BioRad).
Next, the antiproliferative activity rate (%) was obtained by the formula (2) below.
Antiproliferative activity rate(%)=((B−A)/B)×100 Formula (2)
wherein B is 660 nm absorbance of the sample when the compound of the present invention is not added, and A is 660 nm absorbance of the sample when the compound of the present invention is added.
From the concentration of the triazole derivative of the present invention and the antiproliferative activity rate, the concentration was obtained using the above formula, at which the cell growth was suppressed by 50% by comparing with the control, and termed an IC50 value.
The antiproliferative activity rate (%) was obtained for SH-b04, SH-b05 and SH-b06 described above by a similar manner to that of the triazole derivatives of the present invention.

[2] = MCF7 cells, 72 hours treatment, 660 nm absorbance after methylene blue staining
[3] = Homo sapiens, MCF7, 72 h, MCF7 cells, 72 hours treatment, 660 nm absorbance after methylene blue staining

Compound | pIC50 (rHSP90) | pIC50 [1, 2] | pIC50 [1, 3] | pIC50 ([1]; Homo sapiens, MCF7, 72 h)
4-bromo-6-{5-methylsulfanyl-4-[4-(morpholin-4-yl)-phenyl]-4H-[1,2,4]triazol-3-yl}-benzene-1,3-diol trifluoroacetate [SMe-d01-TF] | 6.22 | 5.26 | – | –
COc1cccc(-n2c(-c3cc(C(C)C)c(O)cc3O)n[nH]c2=O)c1 [OH-a09, 5-(2,4-dihydroxy-5-isopropyl-phenyl)-4-(3-methoxy-phenyl)-2,4-dihydro-[1,2,4]triazol-3-one] | 6.80 | – | 8.17 | –
COc1ccc(-n2c(-c3cc(C(C)C)c(O)cc3O)n[nH]c2=O)cc1OC [OH-a10, 5-(2,4-dihydroxy-5-isopropyl-phenyl)-4-(3,4-dimethoxy-phenyl)-2,4-dihydro-[1,2,4]triazol-3-one] | – | – | 7.85 | –
CC(C)c1cc(-c2n[nH]c(=O)n2-c2ccc(C(=O)O)cc2)c(O)cc1O [OH-a12, 4-[3-(2,4-dihydroxy-5-isopropylphenyl)-5-oxo-1,5-dihydro-[1,2,4]triazol-4-yl]-benzoic acid] | 6.72 | – | < 4.70 | –
CC(C)c1cc(-c2n[nH]c(=O)n2-c2ccc(C(=O)N3CCOCC3)cc2)c(O)cc1O [OH-a14] | 6.72 | – | 6.14 | –
CC(C)c1cc(-c2n[nH]c(=O)n2-c2cnc(N3CCOCC3)nc2)c(O)cc1O [OH-a17, 5-(2,4-dihydroxy-5-isopropyl-phenyl)-4-[2-(molpholin-4-yl)-pyrimidin-5-yl]-2,4-dihydro-[1,2,4]triazol-3-one] | 6.66 | – | 7.59 | –
CC(C)c1cc(-c2n[nH]c(=O)n2N2CCCCC2)c(O)cc1O [OH-a24•TFA, 5-(2,4-dihydroxy-5-isopropyl-phenyl)-4-piperidin-1-yl-2,4-dihydro-[1,2,4]triazol-3-one] | 5.96 | – | 6.10 | –
CC(C)c1cc(-c2n[nH]c(=O)n2CCN2CCOCC2)c(O)cc1O [OH-a26•HCl, 5-(2,4-dihydroxy-5-isopropyl-phenyl)-4-(2-morpholin-4-yl-ethyl)-2,4-dihydro-[1,2,4]triazol-3-one] | 6.74 | – | 6.22 | –
CC(C)c1cc(-c2n[nH]c(=O)n2CCCN2CCOCC2)c(O)cc1O [OH-a27, 5-(2,4-dihydroxy-5-isopropyl-phenyl)-4-[3-(molpholin-4-yl)-propyl]-2,4-dihydro-[1,2,4]triazol-3-one] | 6.62 | – | 6.66 | –
CC(C)c1cc(-c2n[nH]c(=O)n2CCCN2CCCC2=O)c(O)cc1O [OH-a30, 5-(2,4-dihydroxy-5-isopropyl-phenyl)-4-[3-(2-oxo-pyrrolidin-1-yl)propyl]-2,4-dihydro-[1,2,4]triazol-3-one] | 6.85 | – | 5.96 | –
COCCn1c(-c2cc(C(C)C)c(O)cc2O)n[nH]c1=O [OH-a32, 5-(2,4-dihydroxy-5-isopropyl-phenyl)-4-(2-methoxy-ethyl)-2,4-dihydro-[1,2,4]triazol-3-one] | 6.46 | – | 6.41 | –
CC(C)c1cc(-c2n[nH]c(=O)n2C(CO)CO)c(O)cc1O [OH-a33, 5-(2,4-dihydroxy-5-isopropyl-phenyl)-4-(2-hydroxy-1-hydroxymethyl-ethyl)-2,4-dihydro-[1,2,4]triazol-3-one] | 6.43 | – | 5.48 | –
CC#CCc1cc(-c2n[nH]c(=O)n2-c2ccc(CN3CCOCC3)cc2)c(O)cc1O [OH-c02, 5-[5-(but-2-ynyl)-2,4-dihydroxy-phenyl]-4-[4-(morpholin-4-ylmethyl)-phenyl]-2,4-dihydro-[1,2,4]triazol-3-one] | 6.66 | – | 6.85 | –
C#CCc1cc(-c2n[nH]c(=O)n2-c2ccc(CN3CCOCC3)cc2)c(O)cc1O [OH-e02, 5-[2,4-dihydroxy-5-(prop-2-ynyl)-phenyl]-4-[4-(morpholin-4-ylmethyl)-phenyl]-2,4-dihydro-[1,2,4]triazol-3-one] | 6.82 | – | 6.62 | –
CCCCn1c(Cc2cc(OC)c(OC)c(OC)c2)nc2c(N)ncnc21 [PU3, reference compound] | – | 4.04 | – | –
CC(C)c1cc(-c2nnc(S(=O)(=O)CCCN(C)C)n2-c2ccc(O)cc2)c(O)cc1O [SFN2-a11•TFA, 4-[5-(3-dimethylamino-propylsulfonyl)-4-(4-hydroxy-phenyl)-4H-[1,2,4]triazol-3-yl]-6-isopropyl-benzene-1,3-diol] | 6.37 | – | 7.01 | –
CC(C)c1cc(-c2nnc(S(=O)(=O)CCCN(C)C)n2C(C)C)c(O)cc1O [SFN2-a21•TFA] | 6.00 | – | 5.28 | –
CC(C)c1cc(-c2nnc(S(=O)(=O)CCCN3CCCCC3)n2C(C)C)c(O)cc1O [SFN3-a21•TFA, 4-isopropyl-6-[4-isopropyl-5-(3-piperidine-1-yl-propane-1-sulfonyl)-4H-[1,2,4]triazol-3-yl]-benzene-1,3-diol] | 5.85 | – | 5.39 | –
COc1ccc(-n2c(-c3cc(C(C)C)c(O)cc3O)nnc2S(=O)(=O)Cc2cccnc2)cc1 [SFN4-a08, 4-isopropyl-6-[4-(4-methoxy-phenyl)-5-(pyridin-3-ylmethanesulfonyl)-4H-[1,2,4]triazol-3-yl]-benzene-1,3-diol] | 6.64 | – | 5.00 | –
COc1ccc(-n2c(-c3cc(C(C)C)c(O)cc3O)nnc2S(=O)(=O)Cc2ccc[n+]([O-])c2)cc1 [SFN5-a08, 4-isopropyl-6-[4-(4-methoxy-phenyl)-5-(1-oxy-pyridin-3-ylmethanesulfonyl)-4H-[1,2,4]triazol-3-yl]-benzene-1,3-diol] | 6.37 | – | 5.41 | –
COc1ccc(-n2c(-c3cc(C(C)C)c(O)cc3O)nnc2S(=O)(=O)CC(=O)N(C)C)cc1 [SFN6-a08, 2-[5-(2,4-dihydroxy-5-isopropyl-phenyl)-4-(4-methoxy-phenyl)-4H-[1,2,4]triazol-3-sulfonyl]-N,N-dimethyl-acetamide] | 6.24 | – | 6.26 | –
COc1ccc(-n2c(-c3cc(C(C)C)c(O)cc3O)nnc2S(=O)(=O)CC2CCCCO2)cc1 (centres unmarked) [SFN7-a08, 4-isopropyl-6-[4-(4-methoxy-phenyl)-5-(tetrahydro-pyran-2-ylmethanesulfonyl)-4H-[1,2,4]triazol-3-yl]-benzene-1,3-diol] | 6.14 | – | 6.14 | –
COCCOCCS(=O)(=O)c1nnc(-c2cc(C(C)C)c(O)cc2O)n1-c1ccc(OC)cc1 [SFN8-a08, 4-isopropyl-6-{5-[2-(2-methoxy-ethoxy)-ethanesulfonyl]-4-(4-methoxy-phenyl)-4H-[1,2,4]triazol-3-yl}-benzene-1,3-diol] | 6.22 | – | 5.62 | –
CC(C)c1cc(-c2nnc(S(C)(=O)=O)n2CCN2CCOCC2)c(O)cc1O [SFN-a26, 4-isopropyl-6-[5-methanesulfonyl-4-(2-molpholin-4-ylethyl)-4H-[1,2,4]triazol-3-yl]-benzene-1,3-diol] | – | – | < 4.70 | –
Oc1cc(O)c(-c2n[nH]c(=S)n2-c2ccc(N3CCOCC3)cc2)cc1Br [SH-d01, 4-bromo-6-{5-mercapto-4-[4-(morpholin-4-yl)-phenyl]-4H-[1,2,4]triazol-3-yl}-benzene-1,3-diol] | – | – | 6.24 | –
COc1ccc(-n2c(SC)nnc2-c2cc(C(C)C)c(O)cc2O)cc1 [SMe-a08, 4-isopropyl-6-[4-(4-methoxy-phenyl)-5-methylsulfanyl-4H-[1,2,4]triazol-3-yl]-benzene-1,3-diol] | – | – | 5.51 | –
COC1=C2C[C@@H](C)C[C@H](OC)[C@H](O)[C@@H](C)/C=C(\C)[C@H](OC(N)=O)[C@@H](OC)/C=C\C=C(/C)C(=O)NC(=CC1=O)C2=O [geldanamycin, reference compound] | – | – | 7.92 | –
CO[C@H]1[C@@H](OC)C[C@H](C)[C@@H](OC)C2=CC(=O)C=C(NC(=O)/C(C)=C/C=C\[C@H](OC)[C@@H](OC(N)=O)/C(C)=C/[C@@H]1C)C2=O [herbimycin, reference compound] | – | – | – | 6.80
C[C@@H]1C[C@H]2O[C@@H]2/C=C\C=C\C(=O)Cc2c(Cl)c(O)cc(O)c2C(=O)O1 [radicicol, reference compound] | – | – | 7.72 | –
